Paper PMC4521635 (Clinical cancer research : an official journal of the …, 2011)
Entries after “also recorded” stand apart in the source; their conditions may differ. Read-outs that look alike come from different tables or passages of the source.

Legend:
[1] = cited from earlier work
[2] = clinical; assay type: in vivo, human
[3] = 4-day continuous infusion with cyclophosphamide and carboplatin; cited from earlier work
[4] = with paclitaxel and carboplatin
[5] = median, dose level 7, daily dose 21.3 mg/m^2 for 3 days, day 8, phase I patients
[6] = Expanded MTD cohort, TIME + HCT
[7] = TIME regimen with autologous HCT
[8] = dose level 1, topotecan 10 mg/m^2, TIME + HCT
[9] = dose level 2, topotecan 15 mg/m^2, TIME + HCT
[10] = dose level 3, topotecan 20 mg/m^2, TIME + HCT
[11] = dose level 4, topotecan 27 mg/m^2, TIME + HCT
[12] = dose level 5, topotecan 36 mg/m^2, TIME + HCT
[13] = dose level 6, topotecan 48 mg/m^2, TIME + HCT
[14] = dose level 7, topotecan 64 mg/m^2, TIME + HCT
[15] = dose level 8, topotecan 85 mg/m^2, TIME + HCT

CC[C@@]1(O)C(=O)OCc2c1cc1n(c2=O)Cc2cc3c(CN(C)C)c(O)ccc3nc2-1 [topotecan]
dose-limiting toxicity ([1]; seen at 6 mg/m^2/d, with cyclophosphamide and carboplatin): severe stomatitis requiring parenteral nutrition and narcotic administration | MTD ([1]; single agent, 72-hour continuous infusion, largest dose 11 mg/m^2): not reached | dose-limiting toxicity ([1]; single-agent topotecan with hematopoietic cell support): diarrhea | dose-limiting toxicities [1, 4]: hemorrhagic stomatitis and prolonged hematopoietic recovery | topotecan dose at which 4 cycles could be given [1, 4]: 10 mg/m^2 | AUC, Lactone ([2]; human, in vivo, 3.3 mg/m2): 0.26 µM·h | AUC, Total ([2]; human, in vivo, 3.3 mg/m2): 0.56 µM·h | Cl, Lactone ([2]; human, in vivo, 3.3 mg/m2): 27.95 L/h/m^2 | Cl, Total ([2]; human, in vivo, 3.3 mg/m2): 12.97 L/h/m^2 | Cmax ([2]; human, in vivo, 3.3 mg/m2): 180 nM | Cmax, Total ([2]; human, in vivo, 3.3 mg/m2): 180 nM | T1/2, Lactone ([2]; human, in vivo, 3.3 mg/m2): 2.6 h | T1/2, Total ([2]; human, in vivo, 3.3 mg/m2): 2.7 h | Vdss, Lactone ([2]; human, in vivo, 3.3 mg/m2): 56.6 L/m^2 | Vdss, Total ([2]; human, in vivo, 3.3 mg/m2): 49.2 L/m^2 | AUC ([2]; human, in vivo, 5 mg/m2): 0.27 µM·h | Cl, Lactone ([2]; human, in vivo, 5 mg/m2): 41.19 L/h/m^2 | Cl, Total ([2]; human, in vivo, 5 mg/m2): 15.44 L/h/m^2 | Cmax ([2]; human, in vivo, 5 mg/m2): 200 nM | T1/2, Total ([2]; human, in vivo, 5 mg/m2): 3.0 h | half-life ([2]; human, in vivo, 5 mg/m2): 2.7 h | AUC ([2]; human, in vivo, 6.8 mg/m2): 0.38 µM·h | AUC, Total ([2]; human, in vivo, 6.8 mg/m2): 0.86 µM·h | Cl, Lactone ([2]; human, in vivo, 6.8 mg/m2): 39.59 L/h/m^2 | Cl, Total ([2]; human, in vivo, 6.8 mg/m2): 17.14 L/h/m^2 | Cmax ([2]; human, in vivo, 6.8 mg/m2): 230 nM | Cmax, Total ([2]; human, in vivo, 6.8 mg/m2): 330 nM | T1/2, Total ([2]; human, in vivo, 6.8 mg/m2): 2.6 h | Vdss, Lactone ([2]; human, in vivo, 6.8 mg/m2): 113 L/m^2 | Vdss, Total ([2]; human, in vivo, 6.8 mg/m2): 57.5 L/m^2 | half-life ([2]; human, in vivo, 6.8 mg/m2): 3.4 h | AUC, Lactone ([2]; human, in vivo, 8.9 mg/m2): 0.70 µM·h | AUC, Total ([2]; human, in vivo, 8.9 mg/m2): 1.63 µM·h | Cl, Lactone ([2]; human, in vivo, 8.9 mg/m2): 28.1 L/h/m^2 | Cl, Total ([2]; human, in vivo, 8.9 mg/m2): 12.05 L/h/m^2 | Cmax ([2]; human, in vivo, 8.9 mg/m2): 480 nM | Cmax, Total ([2]; human, in vivo, 8.9 mg/m2): 520 nM | T1/2, Lactone ([2]; human, in vivo, 8.9 mg/m2): 3.1 h | Vdss, Lactone ([2]; human, in vivo, 8.9 mg/m2): 91.6 L/m^2 | Vdss, Total ([2]; human, in vivo, 8.9 mg/m2): 53.7 L/m^2 | AUC, Lactone ([2]; human, in vivo, 12 mg/m2): 0.88 µM·h | AUC, Total ([2]; human, in vivo, 12 mg/m2): 1.86 µM·h | Cl, Lactone ([2]; human, in vivo, 12 mg/m2): 30.11 L/h/m^2 | Cl, Total ([2]; human, in vivo, 12 mg/m2): 16.43 L/h/m^2 | Cmax ([2]; human, in vivo, 12 mg/m2): 610 nM | Cmax, Total ([2]; human, in vivo, 12 mg/m2): 650 nM | T1/2, Lactone ([2]; human, in vivo, 12 mg/m2): 3.2 h | T1/2, Total ([2]; human, in vivo, 12 mg/m2): 2.9 h | Vdss, Lactone ([2]; human, in vivo, 12 mg/m2): 94.4 L/m^2 | Vdss, Total ([2]; human, in vivo, 12 mg/m2): 53.3 L/m^2 | AUC, Lactone ([2]; human, in vivo, 15.7 mg/m2): 1.48 µM·h | AUC, Total ([2]; human, in vivo, 15.7 mg/m2): 2.77 µM·h | Cl, Lactone ([2]; human, in vivo, 15.7 mg/m2): 23.53 L/h/m^2 | Cl, Total ([2]; human, in vivo, 15.7 mg/m2): 12.62 L/h/m^2 | Cmax ([2]; human, in vivo, 15.7 mg/m2): 800 nM | Cmax, Total ([2]; human, in vivo, 15.7 mg/m2): 870 nM | T1/2, Lactone ([2]; human, in vivo, 15.7 mg/m2): 3.3 h | T1/2, Total ([2]; human, in vivo, 15.7 mg/m2): 3.1 h | Vdss, Lactone ([2]; human, in vivo, 15.7 mg/m2): 76.6 L/m^2 | Vdss, Total ([2]; human, in vivo, 15.7 mg/m2): 48.1 L/m^2 | T1/2, Lactone ([2]; human, in vivo, 21.3 mg/m2): 2.7 h | T1/2, Total ([2]; human, in vivo, 21.3 mg/m2): 2.6 h | AUC, Lactone ([2]; human, in vivo, 28.4 mg/m2): 2.40 µM·h | AUC, Total ([2]; human, in vivo, 28.4 mg/m2): 5.73 µM·h | Cl, Lactone ([2]; human, in vivo, 28.4 mg/m2): 25.77 L/h/m^2 | Cl, Total ([2]; human, in vivo, 28.4 mg/m2): 10.78 L/h/m^2 | Cmax ([2]; human, in vivo, 28.4 mg/m2): 1670 nM | Cmax, Total ([2]; human, in vivo, 28.4 mg/m2): 2120 nM | T1/2, Total ([2]; human, in vivo, 28.4 mg/m2): 2.4 h | Vdss, Lactone ([2]; human, in vivo, 28.4 mg/m2): 81.5 L/m^2 | Vdss, Total ([2]; human, in vivo, 28.4 mg/m2): 41.1 L/m^2 | Cl, Lactone [2, 5]: 29.10 L/h/m^2 | Cl, Total [2, 5]: 13.43 L/h/m^2 | Vdss, Lactone [2, 5]: 95.8 L/m^2 | Vdss, Total [2, 5]: 63.9 L/m^2 | MTD of topotecan (daily dose) (3 days, in combination with ifosfamide, mesna, etoposide, followed by autologous HCT): 21.3 mg/m^2/d | Nonrelapse deaths, cause [6]: Arrhythmia (1) and bacterial sepsis (1) | Nonrelapse deaths, number of patients [6]: 2 (13%) | dose-limiting toxicity [7]: Mucositis; also recorded: gastrointestinal toxicity | recommended phase II dose [7]: 64 mg/m^2 | Cortical function, number of patients with grade 3 or 4 [8]: 0 | Enteritis, number of patients with grade 3 or 4 [8]: 0 | Hematuria, number of patients with grade 3 or 4 [8]: 0 | Mucositis (grade 4), number of patients [8]: 1 (25%) | Nonrelapse deaths, number of patients [8]: 0 | Number of days with grade 4 mucositis, median (range) [8]: 0 (0-1) days | Peripheral nerve function, number of patients with grade 3 or 4 [8]: 0 | Pulmonary clinical status, number of patients with grade 3 or 4 [8]: 1 (25%) | Reduction in ejection fraction, number of patients with grade 3 or 4 [8]: 0 | Cortical function, number of patients with grade 3 or 4 [9]: 1 (17%) | Enteritis, number of patients with grade 3 or 4 [9]: 1 (17%) | Hematuria, number of patients with grade 3 or 4 [9]: 1 (17%) | Mucositis (grade 4), number of patients [9]: 2 (33%) | Nonrelapse deaths, number of patients [9]: 0 | Number of days with grade 4 mucositis, median (range) [9]: 0 (0-10) days | Peripheral nerve function, number of patients with grade 3 or 4 [9]: 1 (17%) | Pulmonary clinical status, number of patients with grade 3 or 4 [9]: 1 (17%) | Reduction in ejection fraction, number of patients with grade 3 or 4 [9]: 0 | Cortical function, number of patients with grade 3 or 4 [10]: 0 | Enteritis, number of patients with grade 3 or 4 [10]: 3 (75%) | Hematuria, number of patients with grade 3 or 4 [10]: 1 (25%) | Mucositis (grade 4), number of patients [10]: 2 (50%) | Nonrelapse deaths, number of patients [10]: 0 | Number of days with grade 4 mucositis, median (range) [10]: 2.5 (0-6) days | Peripheral nerve function, number of patients with grade 3 or 4 [10]: 0 | Pulmonary clinical status, number of patients with grade 3 or 4 [10]: 0 | Reduction in ejection fraction, number of patients with grade 3 or 4 [10]: 0 | Cortical function, number of patients with grade 3 or 4 [11]: 1 (20%) | Enteritis, number of patients with grade 3 or 4 [11]: 3 (60%) | Hematuria, number of patients with grade 3 or 4 [11]: 0 | Mucositis (grade 4), number of patients [11]: 4 (80%) | Nonrelapse deaths, number of patients [11]: 0 | Number of days with grade 4 mucositis, median (range) [11]: 2 (0-7) days | Peripheral nerve function, number of patients with grade 3 or 4 [11]: 0 | Pulmonary clinical status, number of patients with grade 3 or 4 [11]: 1 (20%) | Reduction in ejection fraction, number of patients with grade 3 or 4 [11]: 1 (20%) | Cortical function, number of patients with grade 3 or 4 [12]: 1 (11 %) | Enteritis, number of patients with grade 3 or 4 [12]: 4 (44%) | Hematuria, number of patients with grade 3 or 4 [12]: 0 | Mucositis (grade 4), number of patients [12]: 5 (56%) | Nonrelapse deaths, number of patients [12]: 0 | Number of days with grade 4 mucositis, median (range) [12]: 1 (0-20) days | Peripheral nerve function, number of patients with grade 3 or 4 [12]: 0 | Pulmonary clinical status, number of patients with grade 3 or 4 [12]: 0 | Reduction in ejection fraction, number of patients with grade 3 or 4 [12]: 0 | Cortical function, number of patients with grade 3 or 4 [13]: 0 | Enteritis, number of patients with grade 3 or 4 [13]: 2 (40%) | Hematuria, number of patients with grade 3 or 4 [13]: 0 | Mucositis (grade 4), number of patients [13]: 5 (100%) | Nonrelapse deaths, number of patients [13]: 0 | Number of days with grade 4 mucositis, median (range) [13]: 5 (1-9) days | Peripheral nerve function, number of patients with grade 3 or 4 [13]: 0 | Pulmonary clinical status, number of patients with grade 3 or 4 [13]: 0 | Reduction in ejection fraction, number of patients with grade 3 or 4 [13]: 0 | Cortical function, number of patients with grade 3 or 4 [14]: 0 | Enteritis, number of patients with grade 3 or 4 [14]: 4 (57%) | Hematuria, number of patients with grade 3 or 4 [14]: 1 (14%) | Mucositis (grade 4), number of patients [14]: 7 (100%) | Nonrelapse deaths, cause [14]: Fungal infection | Nonrelapse deaths, number of patients [14]: 1 (14%) | Number of days with grade 4 mucositis, median (range) [14]: 6 (4-11) days | Peripheral nerve function, number of patients with grade 3 or 4 [14]: 1 (14%) | Pulmonary clinical status, number of patients with grade 3 or 4 [14]: 0 | Reduction in ejection fraction, number of patients with grade 3 or 4 [14]: 0 | Cortical function, number of patients with grade 3 or 4 [15]: 0 | Enteritis, number of patients with grade 3 or 4 [15]: 3 (60%) | Hematuria, number of patients with grade 3 or 4 [15]: 1 (20%) | Mucositis (grade 4), number of patients [15]: 4 (80%) | Nonrelapse deaths, cause [15]: Septic shock | Nonrelapse deaths, number of patients [15]: 1 (20%) | Number of days with grade 4 mucositis, median (range) [15]: 8 (0-12) days | Peripheral nerve function, number of patients with grade 3 or 4 [15]: 0 | Pulmonary clinical status, number of patients with grade 3 or 4 [15]: 0 | Reduction in ejection fraction, number of patients with grade 3 or 4 [15]: 1 (20%) | median topotecan clearance [3]: 184 mL/min/m^2
